For one series, the target named is hCA II (Homo sapiens, UniProt P00918). Description: Esterase activity inhibition of hCA II purified from human erythrocytes (IC50, Ki). Conditions: for Inhibition Type hCA II / Ki: Lineweaver-Burk plot; for Ki / IC50: NI = No Inhibition; for IC50: mean from three assays, spectrophotometric; for inhibition effect on hCA II (in words): esterase activity. The series is classed as biochemical. On the procedure:
(§1) Esterase activities of purified hCA I and hCA II were determined according to the literature. Activity measurement has described in detail in our previous studies.
(§2) The method for determination of Ki values has described in detail in our previous studies. […] The data have linearized with Lineweaver–Burk plot in order to obtain Ki values.
(§3) IC50 and Ki values were expressed by averaging the results from triplicate experiments.
(§4) The enzymatic reaction, in a total volume of 3.0 mL, contained 1.4 mL of 0.05 M TRIS–SO4 buffer (pH 7.4), 1.0 mL of 3.0 mM 4-nitrophenylacetate, 0.5 mL H2O and 0.1 mL enzyme solution. A reference measurement was obtained by preparing the same cuvette without enzyme solution [46–49, 53].
(§5) Regression analysis graphs were drawn by plotting the percent enzyme activity versus inhibitor concentration and IC50 values were calculated.
(§6) Enzyme activity was also measured in the presence of the same substrate concentrations but in the absence of any inhibitor to determine the Vmax.

In another series the target is hCA I (Homo sapiens, UniProt P00915). Description: Esterase activity inhibition of hCA I purified from human erythrocytes (IC50, Ki). The series is classed as biochemical. The settings on record: for Inhibition Type hCA I / Ki: Lineweaver-Burk plot; for Ki / IC50: NI = No Inhibition; for IC50: mean from three assays, spectrophotometric; for inhibition effect on hCA I (in words): esterase activity. On the procedure:
as §1, §2, §3, §4, §5, §6

Eight compounds from publication PMC11909088, “Synthesis, molecular docking and molecular dynamics simulations, drug-likeness studies, ADMET prediction and biological evaluation of novel pyrazole-carboxamides bearing sulfonamide moiety as potent carbonic anhydrase inhibitors” (Molecular Diversity, 2024) can be followed below.

Chain of hCA I (P00915 whole entry): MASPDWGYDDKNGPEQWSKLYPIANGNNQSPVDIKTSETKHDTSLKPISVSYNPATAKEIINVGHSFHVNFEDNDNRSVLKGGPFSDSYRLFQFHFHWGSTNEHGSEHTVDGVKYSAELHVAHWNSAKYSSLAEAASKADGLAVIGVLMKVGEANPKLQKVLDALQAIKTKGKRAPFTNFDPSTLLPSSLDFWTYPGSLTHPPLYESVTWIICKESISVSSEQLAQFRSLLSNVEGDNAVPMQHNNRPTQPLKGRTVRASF

As to `NS(=O)(=O)c1cccc(NC(=O)c2nn(-c3ccccc3)c(-c3ccccc3)c2C(=O)c2ccccc2)c1` [Compound 6b, 4-benzoyl-1,5-diphenyl-N-(3-sulfamoylphenyl)-1H-pyrazole-3-carboxamide], at hCA II, the “Inhibition Type hCA II” value is recorded as “Non competitive”, the inhibition constant (Ki) is 30 nM and the half-inhibitory concentration (IC50) stood at 139 nM. Moreover, the “stronger inhibitory effect than AAZ for hCA II” value at hCA II (compared with reference compound AAZ) is “approximately fivefold”. Further, at hCA I, the “Inhibition Type hCA I” value is “Non competitive”, the inhibition constant (Ki) amounted to 237 nM and it took 463 nM to reach half-maximal inhibition (IC50).
`NS(=O)(=O)c1ccccc1NC(=O)c1nn(-c2ccccc2)c(-c2ccccc2)c1C(=O)c1ccccc1` [Compound 6c, 4-benzoyl-1,5-diphenyl-N-(2-sulfamoylphenyl)-1H-pyrazole-3-carboxamide] had a melting point of 233 to 235 °C. For the same compound, at hCA II, the “Inhibition Type hCA II” value is given as “Non competitive”; the affinity, expressed as Ki, was 4230 nM; half-maximal inhibition (IC50) was put at 6410 nM. In addition, at hCA I, the “Inhibition Type hCA I” value was “Non competitive”, affinity was put at a Ki of 3370 nM and the IC50 is 6200 nM.
The compound `O=C(Nc1ccc(S(=O)(=O)Nc2ccccn2)cc1)c1nn(-c2ccccc2)c(-c2ccccc2)c1C(=O)c1ccccc1` [Compound 6d, 4-benzoyl-1,5-diphenyl-N-(4-(N-(pyridin-2-yl)sulfamoyl)phenyl)-1H-pyrazole-3-carboxamide] registered a melting point of 239 to 241 °C. In addition, the “inhibition effect on hCA II (in words)” value on hCA II is “did not show any inhibition effect”. Further, at hCA I, the “inhibition effect on hCA I (in words)” value is “did not show any inhibition effect”.
`O=C(Nc1ccc(S(=O)(=O)Nc2ncccn2)cc1)c1nn(-c2ccccc2)c(-c2ccccc2)c1C(=O)c1ccccc1` [Compound 6e, 4-benzoyl-1,5-diphenyl-N-(4-(N-(pyrimidin-2-yl)sulfamoyl)phenyl)-1H-pyrazole-3-carboxamide]: the melting point was in the range of 244 to 246 °C. Also, the “inhibition effect on hCA II (in words)” value against hCA II is given as “did not show any inhibition effect”. Besides, the “inhibition effect on hCA I (in words)” value against hCA I is recorded as “did not show any inhibition effect”.
`Cc1ccnc(NS(=O)(=O)c2ccc(NC(=O)c3nn(-c4ccccc4)c(-c4ccccc4)c3C(=O)c3ccccc3)cc2)n1` [Compound 6f, 4-benzoyl-N-(4-(N-(4-methylpyrimidin-2-yl)sulfamoyl)phenyl)-1,5-diphenyl-1H-pyrazole-3-carboxamide] displayed a melting point of 237 to 239 °C. Further, the “inhibition effect on hCA II (in words)” value at hCA II was “did not show any inhibition effect”. In addition, the “inhibition effect on hCA I (in words)” value against hCA I is listed as “did not show any inhibition effect”.
On to `Cc1noc(NS(=O)(=O)c2ccc(NC(=O)c3nn(-c4ccccc4)c(-c4ccccc4)c3C(=O)c3ccccc3)cc2)c1C` [Compound 6g, 4-benzoyl-N-(4-(N-(3,4-dimethylisoxazol-5-yl)sulfamoyl)phenyl)-1,5-diphenyl-1H-pyrazole-3-carboxamide], for which the melting point lay in the range of 165 to 167 °C. Further, the “maximal decrease of hCA I activity” value at hCA I (at most) was at most 50%. Besides, at hCA I, half-maximal inhibition (IC50) was put at 1660 nM.
For the compound `O=C(Nc1ccc(S(=O)(=O)Nc2nccs2)cc1)c1nn(-c2ccccc2)c(-c2ccccc2)c1C(=O)c1ccccc1` [Compound 6h, 4-benzoyl-1,5-diphenyl-N-(4-(N-(thiazol-2-yl)sulfamoyl)phenyl)-1H-pyrazole-3-carboxamide], the melting point was 252 to 254 °C. Besides, the “inhibition effect on hCA II (in words)” value against hCA II was “did not inhibit”.
`N=C(N)NS(=O)(=O)c1ccc(NC(=O)c2nn(-c3ccccc3)c(-c3ccccc3)c2C(=O)c2ccccc2)cc1` [Compound 6i, 4-benzoyl-N-(4-(N-carbamimidoylsulfamoyl)phenyl)-1,5-diphenyl-1H-pyrazole-3-carboxamide] returned a melting point of 280 to 282 °C. On hCA II, the “inhibition effect on hCA II (in words)” value is given as “did not show any inhibition effect”. For the same compound, the “inhibition effect on hCA I (in words)” value against hCA I was “did not show any inhibition effect”.
